Values after ≈ are worked out from the molar mass of the structure shown.
Tests used:
Assay in all cases: Antibacterial MIC, broth microdilution (CLSI)
Type in all cases: cell-based
[1] = system: Enterococcus faecalis (ATCC 51299); details: Enterococcus faecalis, ATCC51299; read-out: MIC80 E. faecalis
[2] = system: Staphylococcus aureus (ATCC 43300); details: Staphylococcus aureus, ATCC43300; read-out: MIC80 S. aureus
[3] = system: Escherichia coli (ATCC 25922); details: Escherichia coli, ATCC25922; read-out: MIC80 E. coli

SMILES | MIC80 [1] [µM] | MIC80 [2] [µM] | MIC80 [3] [µM]
[H]/N=C(\CCNC(=O)c1cc(NC(=O)c2cc(NC(=O)c3ccc(C=Cc4ccc(N(C)C)cc4)nc3)cn2C)cn1C)N1CCOCC1 [Ib11, (E)-6-(4-(dimethylamino)styryl)-N-(5-((5-((3-imino-3-morpholinopropyl)carbamoyl)-1-methyl-1H-pyrrol-3-yl)carbamoyl)-1-methyl-1H-pyrrol-3-yl)nicotinamide] | 5 to 25 (≈ 3.26 to 16.3 µg/mL) | < 5 | > 100
C/N=C(/CCNC(=O)c1cc(NC(=O)c2cc(NC(=O)c3ccc(/C=C/c4ccc(F)c(OC)c4)nc3)cn2C)cn1C)NC [Ia59, 6-((E)-4-fluoro-3-methoxystyryl)-N-(1-methyl-5-((1-methyl-5-(((Z)-3-(methylamino)-3-(methylimino)propyl)carbamoyl)-1H-pyrrol-3-yl)carbamoyl)-1H-pyrrol-3-yl)nicotinamide] | > 100 | < 5 | > 100
CC/N=C(/CCNC(=O)c1cc(NC(=O)c2cc(NC(=O)c3ccc(/C=C/c4cnc5ccccc5c4)cc3)cn2C)cn1C)NCC [Ia50, N—((Z)-3-(ethylamino)-3-(ethylimino)propyl)-1-methyl-4-(1-methyl-4-(4-((E)-2-(quinolin-3-yl)vinyl)benzamido)-1H-pyrrole-2-carboxamido)-1H-pyrrole-2-carboxamide] | 25 to 100 (≈ 16.1 to 64.5 µg/mL) | 25 to 100 (≈ 16.1 to 64.5 µg/mL) | > 100
Cn1cc(NC(=O)c2cc(NC(=O)c3ccc(/C=C/c4cnc5ccccc5c4)cc3)cn2C)cc1C(=O)NCCCCC(=N)N [II1, (E)-N-(5-amino-5-iminopentyl)-1-methyl-4-(1-methyl-4-(4-(2-(quinolin-3-yl)vinyl)benzamido)-1H-pyrrole-2-carboxamido)-1H-pyrrole-2-carboxamide] | > 100 | 25 to 100 (≈ 15.4 to 61.7 µg/mL) | > 100
CCCCCCC[N+]1(CCNC(=O)c2cc(NC(=O)c3cc(NC(=O)c4ccc(/C=C/c5cnc6ccccc6c5)cc4)cn3C)cn2C)CCOCC1 [Id2, (E)-4-heptyl-4-(2-(1-methyl-4-(1-methyl-4-(4-(2-(quinolin-3-yl)vinyl)benzamido)-1H-pyrrole-2-carboxamido)-1H-pyrrole-2-carboxamido)ethyl)morpholin-4-ium] | > 100 | < 5 | > 100
CC/N=C(/CCNC(=O)c1cc(NC(=O)c2cc(NC(=O)c3ccc(/C=C/c4ccc(N(C)C)cc4)nc3)cn2C)cn1C)NCC [Ia51, 6-((E)-4-(dimethylamino)styryl)-N-(5-((5-(((Z)-3-(ethylamino)-3-(ethylimino)propyl)carbamoyl)-1-methyl-1H-pyrrol-3-yl)carbamoyl)-1-methyl-1H-pyrrol-3-yl)nicotinamide] | 25 to 100 (≈ 15.9 to 63.8 µg/mL) | 25 to 100 (≈ 15.9 to 63.8 µg/mL) | > 100
[H]/N=C(\CCNC(=O)c1cc(NC(=O)c2cc(NC(=O)c3ccc(C=Cc4ccc(N(C)C)cc4)nc3)cn2C)cn1C)NCCc1ccccc1 [Ia49, (E)-6-(4-(dimethylamino)styryl)-N-(5-((5-((3-imino-3-(phenethylamino)propyl)carbamoyl)-1-methyl-1H-pyrrol-3-yl)carbamoyl)-1-methyl-1H-pyrrol-3-yl)nicotinamide] | > 100 | < 5 | > 100
C/N=C(\CCNC(=O)c1cc(NC(=O)c2cc(NC(=O)c3ccc(/C=C/c4cccc(OC)c4)cc3)cn2C)cn1C)NC [Ia53, 4-(4-((E)-3-methoxystyryl)benzamido)-1-methyl-N-(1-methyl-5-(((E)-3-(methylamino)-3-(methylimino)propyl)carbamoyl)-1H-pyrrol-3-yl)-1H-pyrrole-2-carboxamide] | 5 to 25 (≈ 2.98 to 14.9 µg/mL) | < 5 | > 100
CNC(=N)CCNC(=O)c1cc(NC(=O)c2cc(NC(=O)c3ccc(/C=C/c4ccc(OC)cc4)nc3)cn2C)cn1C [Ia55, (E)-N-(5-((5-((3-imino-3-(methylamino)propyl)carbamoyl)-1-methyl-1H-pyrrol-3-yl)carbamoyl)-1-methyl-1H-pyrrol-3-yl)-6-(4-methoxystyryl)nicotinamide] | 5 to 25 (≈ 2.91 to 14.6 µg/mL) | 5 to 25 (≈ 2.91 to 14.6 µg/mL) | > 100
Cn1cc(NC(=O)c2cc(NC(=O)c3ccc(/C=C/c4cnc5ccccc5c4)cc3)cn2C)cc1C(=O)NCCC(=N)NCC(F)F [Ia62, (E)-N-(3-((2,2-difluoroethyl)amino)-3-iminopropyl)-1-methyl-4-(1-methyl-4-(4-(2-(quinolin-3-yl)vinyl)benzamido)-1H-pyrrole-2-carboxamido)-1H-pyrrole-2-carboxamide] | < 5 | < 5 | > 100
C/N=C(/CCNC(=O)c1cc(NC(=O)c2cc(NC(=O)c3ccc(/C=C/c4cccc(C(F)(F)F)c4)nc3)cn2C)cn1C)NC [Ia61, N-(1-methyl-5-((1-methyl-5-(((Z)-3-(methylamino)-3-(methylimino)propyl)carbamoyl)-1H-pyrrol-3-yl)carbamoyl)-1H-pyrrol-3-yl)-6-((E)-3-(trifluoromethyl)styryl)nicotinamide] | 5 to 25 (≈ 3.17 to 15.9 µg/mL) | 5 to 25 (≈ 3.17 to 15.9 µg/mL) | > 100
CCCCCC[N+]1(CCNC(=O)c2cc(NC(=O)c3cc(NC(=O)c4ccc(/C=C/c5cnc6ccccc6c5)cc4)cn3C)cn2C)CCOCC1 [Id1, (E)-4-hexyl-4-(2-(1-methyl-4-(1-methyl-4-(4-(2-(quinolin-3-yl)vinyl)benzamido)-1H-pyrrole-2-carboxamido)-1H-pyrrole-2-carboxamido)ethyl)morpholin-4-ium] | > 100 | < 5 | > 100
CNC(=N)CCNC(=O)c1cc(NC(=O)c2cc(NC(=O)c3ccc(/C=C/c4cccc(OC)c4)cc3)cn2C)cn1C [Ia56, (E)-N-(3-imino-3-(methylamino)propyl)-4-(4-(4-(3-methoxystyryl)benzamido)-1-methyl-1H-pyrrole-2-carboxamido)-1-methyl-1H-pyrrole-2-carboxamide] | 5 to 25 (≈ 2.91 to 14.5 µg/mL) | 5 to 25 (≈ 2.91 to 14.5 µg/mL) | > 100
CONC(=N)CCNC(=O)c1cc(NC(=O)c2cc(NC(=O)c3ccc(/C=C/c4cccc(OC)c4)cc3)cn2C)cn1C [Ia29, (E)-N-(3-imino-3-(methoxyamino)propyl)-4-(4-(4-(3-methoxystyryl)benzamido)-1-methyl-1H-pyrrole-2-carboxamido)-1-methyl-1H-pyrrole-2-carboxamide] | 5 to 25 (≈ 2.99 to 14.9 µg/mL) | < 5 | > 100
CN(C)c1ccc(/C=C/c2ccc(C(=O)Nc3cc(C(=O)Nc4cc(C(=O)NCCCCC(=N)N)n(C)c4)n(C)c3)cn2)cc1 [II2, (E)-N-(5-((5-((5-amino-5-iminopentyl)carbamoyl)-1-methyl-1H-pyrrol-3-yl)carbamoyl)-1-methyl-1H-pyrrol-3-yl)-6-(4-(dimethylamino)styryl)nicotinamide] | 5 to 25 (≈ 3.05 to 15.2 µg/mL) | 5 to 25 (≈ 3.05 to 15.2 µg/mL) | > 100
[H]/N=C(\CCNC(=O)c1cc(NC(=O)c2cc(NC(=O)c3ccc(C=Cc4ccc(N(C)C)cc4)nc3)cn2C)cn1C)N1CCN(C)CC1 [Ib10, (E)-6-(4-(dimethylamino)styryl)-N-(5-((5-((3-imino-3-(4-methylpiperazin-1-yl)propyl)carbamoyl)-1-methyl-1H-pyrrol-3-yl)carbamoyl)-1-methyl-1H-pyrrol-3-yl)nicotinamide] | > 100 | 5 to 25 (≈ 3.32 to 16.6 µg/mL) | > 100
[H]/N=C(\CCNC(=O)c1cc(NC(=O)c2cc(NC(=O)c3ccc(C=Cc4ccc5nonc5c4)cc3)cn2C)cn1C)NOC [Ia30, (E)-4-(4-(2-(benzo[c][1,2,5]oxadiazol-5-yl)vinyl)benzamido)-N-(5-((3-imino-3-(methoxyamino)propyl)carbamoyl)-1-methyl-1H-pyrrol-3-yl)-1-methyl-1H-pyrrole-2-carboxamide] | 5 to 25 (≈ 3.05 to 15.2 µg/mL) | 5 to 25 (≈ 3.05 to 15.2 µg/mL) | > 100
CN(C)c1ccc(/C=C/c2ccc(C(=O)Nc3cc(C(=O)Nc4cc(C(=O)NCCC(=N)NCC(F)F)n(C)c4)n(C)c3)cn2)cc1 [Ia63, (E)-N-(5-((5-((3-((2,2-difluoroethyl)amino)-3-iminopropyl)carbamoyl)-1-methyl-1H-pyrrol-3-yl)carbamoyl)-1-methyl-1H-pyrrol-3-yl)-6-(4-(dimethylamino)styryl)nicotinamide] | 25 to 100 (≈ 16.1 to 64.6 µg/mL) | < 5 | > 100
COCCOCCOCC[N+](C)(C)CCNC(=O)c1cc(NC(=O)c2cc(NC(=O)c3ccc(/C=C/c4cnc5ccccc5c4)cc3)cn2C)cn1C [Ic19, (E)-2-(2-(2-methoxyethoxy)ethoxy)-N,N-dimethyl-N-(2-(1-methyl-4-(1-methyl-4-(4-(2-(quinolin-3-yl)vinyl)benzamido)-1H-pyrrole-2-carboxamido)-1H-pyrrole-2-carboxamido)ethyl)ethan-1-aminium] | 5 to 25 | < 5 | > 100
CN(C)C(=O)c1cc(NC(=O)c2cc(NC(=O)c3ccc(/C=C/c4cnc5ccccc5c4)cc3)cn2C)cn1C [IVa16, (E)-N,N,1-trimethyl-4-(1-methyl-4-(4-(2-(quinolin-3-yl)vinyl)benzamido)-1H-pyrrole-2-carboxamido)-1H-pyrrole-2-carboxamide] | < 5 | < 5 | > 100
Cn1cc(NC(=O)c2cc(NC(=O)c3ccc(/C=C/c4cnc5ccccc5c4)cc3)cn2C)cc1C(=O)NCC/C(=N/CC(F)F)NCC(F)F [Ia57, N—((Z)-3-((2,2-difluoroethyl)amino)-3-((2,2-difluoroethyl)imino)propyl)-1-methyl-4-(1-methyl-4-(4-((E)-2-(quinolin-3-yl)vinyl)benzamido)-1H-pyrrole-2-carboxamido)-1H-pyrrole-2-carboxamide] | 5 to 25 (≈ 3.58 to 17.9 µg/mL) | < 5 | > 100
COCCNC(=N)CCNC(=O)c1cc(NC(=O)c2cc(NC(=O)c3ccc(/C=C/c4cnc5ccccc5c4)cc3)cn2C)cn1C [Ia58, (E)-N-(3-imino-3-((2-methoxyethyl)amino)propyl)-1-methyl-4-(1-methyl-4-(4-(2-(quinolin-3-yl)vinyl)benzamido)-1H-pyrrole-2-carboxamido)-1H-pyrrole-2-carboxamide] | 5 to 25 (≈ 3.23 to 16.2 µg/mL) | < 5 | > 100

Reference: patent US20250313546A1, “NUCLEIC ACID BINDERS” (UNIVERSITY OF STRATHCLYDE, priority 2022, published 2025)
